# In publication PMC12501029, “Discovery of a CNS active GSK3 degrader using orthogonally reactive linker screening” (Nature Communications, 2025):
# “Also recorded” adds a separate entry of the source.
# Columns and labels:
# [1] = tested on: GSK3, total β-catenin, phospho-CRMP2; assay: GSK3 and GSK3 substrates immunoblot in differentiated SH-SY5Y cells, 24 h; format: cell-based, human
# Method: HEK293 cells purchased from ATCC and MEF cells were kindly gifted by MRC PPU reagents and services at the University of Dundee. HEK293 and MEF cells were maintained in DMEM (high glucose, GlutaMAX; Gibco) containing 10% foetal bovine serum (FBS; Thermo Fisher), 100U ML-1 penicillin-streptomycin (Thermo Fisher). HAP1 wild type and HAP1 Cereblon Knock-out cell line (CRBN-KO, HZGHC003752c001, Horizon) was a gift from the Ciulli Lab. HAP1 cells were cultured in IMDM (Gibco) with the same additives described as above. SH-SY5Y human neuroblastoma cells (ATCC, CRL-2266) maintained in DMEM (high glucose, Gibco) supplemented with same additives as above. For differentiation, 5 × 10^5 cells were seeded into each well of 6 well plates and differentiated into a more neuronal-like phenotype by treating for 5 days with 10 µM retinoic acid (F9665, Sigma), changing the media every day for the first 3 days[39],[40]. […]
# HEK293, HAP1, HAP1 CRBN KO and SH-SY5Y cells were plated in either 6 cm plates or 6-well plates at varying densities (0.5–0.7 × 10^6 cells per plate or wells), and MEF cells were plated in 10 cm plates (1–1.2 × 10^6 cells per plate) depending on experimental set up in respective culturing condition as described above. […] Following clearance of lysates, protein concentrations were determined by the BCA assay (Fisher Scientific, 23225) or Bradford assay (Bio-rad). […]
# GSK3β = target: T1, GSK3β (Mus musculus, UniProt Q9WV60); assay: KH1 (24) intravenous PK/PD study: GSK3β abundance in liver and brain (immunoblot); format: in vivo, female Balb/c mice; conditions: single 5 mg/kg i.v., 4 h, listed as KH1 (24)
# T1 construct: measured KH1 (24) levels in plasma and brain at 4 h, as well as GSK3β abundance in liver and brain; tissue Charles River Laboratories, UK; host or cells: liver and brain of female Balb/c mice
# Method: A fraction of frozen brain and liver samples from control (CNT) and compound KH1 (24) treated animals were-transferred into Precellys 2 mL ceramic bead tubes containing 1 mL SDS lysis buffer (50 mM Tris-HCl pH 7.4, 150 mM NaCl, 1 mM EGTA, 270 mM sucrose, 1% (v/v) Triton-X100) supplemented with complete EDTA-free protease inhibitor cocktail (Roche) and PhosSTOP phosphatase inhibitor tablets (Roche) and placed immediately on ice. Then samples were placed in Precellys Evolution tissue homogeniser (Bertin Technologies) and tissues were lysed at 0 °C for 3 × 30 s of cycles at 6800 rpm, with 30 s pause in between cycles. Samples were centrifugated at 4 °C, 2000 × g for 60 s to get rid of bubbles and supernatant was transferred into new tubes. Lysates were cleared via centrifugation at 16,000 × g, 4 °C for 20 min. Protein concentration was determined by BCA assay (Thermo Scientific) and immunoblotting performed as previously described above. Immunoblots were quantified using ImageLab (Bio-Rad) and band intensities were normalised to loading controls; anti-GAPDH or Ponceau S staining and fold changes for protein of interest were plotted.
# For the PK/PD study for KH1 (24), three female Balb/c mice were given a bolus intravenous injection at a dose level of 5 mg/kg (5 mL/kg). […] The concentration of KH1 (24) in whole blood and brain tissue was determined via UPLC-MS/MS.
# mouse liver proteome = assay: Whole proteome analysis of liver tissue from PK/PD study; format: in vivo, female Balb/c mice; conditions: 5 mg/kg i.v., 4 h; GSK3α could not be quantified
# T1 sequence (Q9WV60 whole entry): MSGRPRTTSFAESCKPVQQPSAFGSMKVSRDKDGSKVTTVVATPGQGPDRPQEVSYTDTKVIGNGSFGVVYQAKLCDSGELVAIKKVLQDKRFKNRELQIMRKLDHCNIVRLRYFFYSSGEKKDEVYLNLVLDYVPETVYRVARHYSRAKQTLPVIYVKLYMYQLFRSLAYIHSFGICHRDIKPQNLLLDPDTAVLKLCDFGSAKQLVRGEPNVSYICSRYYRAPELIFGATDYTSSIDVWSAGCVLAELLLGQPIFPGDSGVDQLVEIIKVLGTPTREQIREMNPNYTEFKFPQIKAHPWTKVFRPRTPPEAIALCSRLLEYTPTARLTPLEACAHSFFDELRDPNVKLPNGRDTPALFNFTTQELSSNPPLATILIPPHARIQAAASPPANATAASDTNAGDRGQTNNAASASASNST
smiles,measurement,setting,value
Cn1nc(N2CCC(=O)NC2=O)c2ccc(CN3CCN(Cc4ccc(-c5cn(-c6ccc(-c7cn8nccc(C(=O)Nc9cnccc9N9CCOCC9)c8n7)cc6)nn5)nc4)CC3)cc21 [compound 24],phospho-CRMP2 level,[1]; concurrent with GSK3 degradation,concurrent reduction in phospho-CRMP2
same,dose at which β-catenin stabilisation most clear,[1]; highest tested dose,100 nM
same,GSK3β abundance in liver,GSK3β; p < 0.0001 vs control,almost complete removal of GSK3β; also recorded: almost completely remove GSK3β
same,GSK3β abundance in brain,GSK3β; p = 0.0159 vs control,significant degradation of GSK3β; also recorded: partial degradation
same,proteome wide specificity in liver,mouse liver proteome,high levels of proteome wide specificity for GSK3β removal
